SMILES strings stand for the structures. Counter-ions that a name gives are not always drawn. Like-named read-outs stand apart in the source and are kept apart here.

14 compounds from patent US20240124470A1, “FIVE-MEMBERED RING DERIVATIVE AND MEDICAL USE THEREOF” (SICHUAN HAISCO PHARMACEUTICAL CO., LTD., priority 2020, published 2024) can be followed below.

For one data set, the target named is T1, hERG potassium channel (Homo sapiens, UniProt Q12809).
T1 construct: expressed in transfected cells
Briefly: Effects on hERG potassium channels, manual whole cell patch-clamp in CHO cells. Conditions: hERG potassium current, room temperature. The class given is cell-based. The source says:
2. Effects of the Compounds on hERG Potassium Channels
Experimental platform: electrophysiological manual patch-clamp system
Cell line: Chinese hamster ovary (CHO) cells stably expressing hERG potassium ion channel
Experimental method: For CHO (Chinese Hamster Ovary) cells stably expressing hERG potassium channel, whole cell patch-clamp technique was used to recorded hERG potassium channel current at room temperature in this experiment. The glass microelectrode is made of a glass electrode blank (BF150-86-10, Sutter) by a puller. The tip resistance after filling the liquid in the electrode is about 2-5 MΩ. The glass microelectrode can be connected to the patch-clamp amplifier by inserting the glass microelectrode into an amplifier probe. The clamping voltage and data recording are controlled and recorded by the pClamp 10 software through a computer. The sampling frequency is 10 kHz, and the filtering frequency is 2 kHz. After the whole cell records were obtained, the cells were clamped at −80 mV, and the step voltage that induced the hERG potassium current (IhERG) was depolarized from −80 mV to +20 mV for 2 s, then repolarized to −50 mV, and returned to −80 mV after 1 s. This voltage stimulation was given every 10 s, and the administration process was started after the hERG potassium current was confirmed to be stable (at least 1 minute). The compound was administered for at least 1 minute at each test concentration, and at least 2 cells (n≥2) were tested at each concentration.
Data analysis processing was carried out by using pClamp 10, GraphPad Prism 5 and Excel software. The inhibition degree of hERG potassium current (peak value of hERG tail current induced at −50 mV) at different compound concentrations was calculated by the following formula: Inhibition %=[1−(I/Io)]×100%.
Among the formula, Inhibition % represents the percentage of inhibition of hERG potassium current by the compound, and I and Io represent the amplitude of hERG potassium current after and before dosing, respectively.
Compound IC50 was calculated using GraphPad Prism 5 software by fitting according to the following equation:
Y=Bottom+(Top−Bottom)/(1+10^((LogIC50−X)×HillSlope))
Among the equation, X represents the Log value of the tested concentration of the test sample, Y represents the inhibition percentage at the corresponding concentration, and Bottom and Top represent the minimum and maximum inhibition percentage, respectively.
For orientation: Block of hERG is tested as a sign of cardiac risk.

Data set [1] can be described thus: Stability test in mouse liver microsomes. It is filed as in vitro ADME. Conditions: mouse liver microsomes 0.5 mg/mL, 1 μM compound, NADPH, 37° C.; for microsomal CLint at 1 μM: read-out: CLint(mic). The protocol:
3. Stability Test in Mouse Liver Microsomes At 37° C., 1 μM of the test compound was incubated with mouse liver microsomes (0.5 mg/mL) supplemented with NADPH regeneration system for 5, 10, 20, 30 and 60 minutes, and then LC-MS/MS method was used to detect the concentration of the test compound in the generated sample. The half-life (T1/2) and inherent clearance rate (CLint(mic)) of the compound in mouse liver microsome solution were obtained by calculating at the corresponding time points and the remaining percentage of the compound.

In a further data set the target is T2, GLP-1 receptor (Homo sapiens, UniProt P43220).
T2 construct: expressed in transfected cells
Briefly: HEK293/CRE-luc/GLP-1R cell luciferase reporter test (agonistic effect on GLP-1 receptor). It is filed as cell-based. Conditions: HEK293/CRE-luc/GLP-1R cells. The protocol:
1. HEK293/CRE-luc/GLP-1β cell viability
Cell: HEK293/CRE-luc/GLP-1R
Cell culture medium: DMEM+10% FBS+400 μg/ml G418+100 μg/ml Hygromycin B
Frozen stock solution: 90% FBS, 10% (V/V) DMSO
Detection buffer: DMEM+1% FBS
Cells were cultured in DMEM medium+10% FBS+400 μg/ml G418+100 μg/ml Hygromycin B in a CO2 incubator at 37° C., and passaged once every 3-4 days.
Cell plating: Trypsinization adjusted the cell density to 1.67×10^5 cells/mL; 60 μL of cells per well (10000 cells/well) was inoculated in a 384-well plate containing compounds; A NC well (negative control) and a background well (no cells) were set. Incubation was performed for about 18+2 h in the incubator.
Compounds were serially diluted with the detection buffer, and the detection concentration was 0.01 nM-1000 nM.
The cell culture plate was removed and all supernatant was aspirated from the cells. The cells were washed gently 2 times with 1×PBS.
The diluted compound was added to a 384-well plate (10 μL/well), and three replicate wells were set for each concentration. 10 μL of the detection buffer was added to the NC well, sealed and incubated at 37° C. for 6 hours.
The plate was removed, the cells were allowed to equilibrate to room temperature (at least 15 min), and then all supernatant was aspirated from the cells.
Steady-Glo® Reagent was added to the sample well at 10 μL/well and incubated at room temperature for 5 min to lyse the cells.
The test results were read with a BMG microplate reader.
The mean background value was calculated.
The induction factor (Fold of induction, FI)=(induction well value−background value)/(negative control well value −background value) was calculated.
The EC50 value of the sample was calculated using Graphpad Prim 8.0 software using four-parameter fitting analysis.
Mean and standard error (Mean±SEM) were calculated for all results and Graphpad Prism software was used for statistical analysis. Specific data were presented in the form of graphs. P<0.05 was considered to be statistically different.
Background: A reporter such as luciferase makes a cellular process visible.

The nature of data set [2]: Stability test in human liver microsomes. It is filed as in vitro ADME. The note with it: human liver microsomes 0.5 mg/mL, 1 μM compound, NADPH, 37° C. The protocol:
7. Stability Test in Human Liver Microsomes At 37° C., 1 μM of the test compound was incubated with human liver microsomes (0.5 mg/mL) supplemented with NADPH regeneration system for 5, 10, 20, 30 and 60 minutes, and then LC-MS/MS method was used to detect the concentration of the test compound in the generated sample. The half-life (T1/2) and inherent clearance rate (CLint(mic)) of the compound in human liver microsome solution were obtained by calculating at the corresponding time points and the remaining percentage of the compound.
(In general: Liver microsomes are vesicles of endoplasmic reticulum, rich in cytochrome P450 enzymes.)

[3] abbreviates: 6 hours incubation, class symbols, read-out: EC50.
The mark [4] stands for this setting: bound stated, read-out: EC50 value.

T2 sequence (P43220 24-463): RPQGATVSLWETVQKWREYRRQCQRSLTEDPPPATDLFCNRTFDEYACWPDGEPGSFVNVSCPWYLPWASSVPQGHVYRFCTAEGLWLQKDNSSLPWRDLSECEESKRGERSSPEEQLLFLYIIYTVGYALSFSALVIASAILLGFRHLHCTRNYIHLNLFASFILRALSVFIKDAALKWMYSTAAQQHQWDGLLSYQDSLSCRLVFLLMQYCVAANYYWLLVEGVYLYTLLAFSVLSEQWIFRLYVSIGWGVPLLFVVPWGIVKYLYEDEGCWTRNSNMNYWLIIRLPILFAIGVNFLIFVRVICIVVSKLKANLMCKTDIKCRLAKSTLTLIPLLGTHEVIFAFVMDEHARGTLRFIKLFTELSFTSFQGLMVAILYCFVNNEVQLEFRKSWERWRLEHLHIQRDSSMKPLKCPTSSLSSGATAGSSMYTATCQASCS
T1 sequence (Q12809 whole entry): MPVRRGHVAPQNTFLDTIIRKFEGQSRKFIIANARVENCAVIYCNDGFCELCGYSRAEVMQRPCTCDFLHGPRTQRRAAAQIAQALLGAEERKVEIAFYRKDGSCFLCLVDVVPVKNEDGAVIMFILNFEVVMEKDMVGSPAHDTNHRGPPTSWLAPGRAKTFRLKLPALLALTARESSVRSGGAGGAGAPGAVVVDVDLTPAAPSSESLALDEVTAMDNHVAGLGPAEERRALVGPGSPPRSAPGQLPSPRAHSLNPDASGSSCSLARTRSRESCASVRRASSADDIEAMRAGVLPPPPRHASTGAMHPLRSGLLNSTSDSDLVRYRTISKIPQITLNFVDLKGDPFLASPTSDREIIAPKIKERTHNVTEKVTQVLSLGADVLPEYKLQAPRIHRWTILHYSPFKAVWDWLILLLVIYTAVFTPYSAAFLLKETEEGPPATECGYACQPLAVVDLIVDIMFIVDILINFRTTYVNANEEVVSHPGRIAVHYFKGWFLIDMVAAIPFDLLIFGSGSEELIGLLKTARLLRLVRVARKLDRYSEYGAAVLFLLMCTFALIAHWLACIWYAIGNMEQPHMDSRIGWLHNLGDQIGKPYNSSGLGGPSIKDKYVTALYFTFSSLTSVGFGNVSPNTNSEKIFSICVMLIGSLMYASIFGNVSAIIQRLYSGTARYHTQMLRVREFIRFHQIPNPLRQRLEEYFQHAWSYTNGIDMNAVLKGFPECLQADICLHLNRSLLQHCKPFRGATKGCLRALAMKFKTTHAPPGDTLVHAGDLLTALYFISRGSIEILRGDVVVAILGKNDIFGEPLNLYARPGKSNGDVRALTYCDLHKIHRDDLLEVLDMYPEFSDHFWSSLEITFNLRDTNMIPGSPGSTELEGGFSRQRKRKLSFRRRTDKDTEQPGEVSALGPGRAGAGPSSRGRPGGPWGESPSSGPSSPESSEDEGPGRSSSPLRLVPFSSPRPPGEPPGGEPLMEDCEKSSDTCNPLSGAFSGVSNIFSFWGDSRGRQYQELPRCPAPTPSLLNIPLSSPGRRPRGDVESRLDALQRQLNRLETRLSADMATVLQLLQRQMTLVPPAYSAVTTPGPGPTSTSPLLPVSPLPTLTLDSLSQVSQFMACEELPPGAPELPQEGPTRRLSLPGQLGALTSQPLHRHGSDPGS

Consider `CC1(c2ccc(C#N)cc2F)Oc2cccc(C3CCN(Cc4nc5sc(C(=O)O)cc5n4C[C@@H]4CCO4)CC3)c2O1` (stereo partly shown) [Compound 5-2], for which the IC50 (usually the midpoint of a concentration-inhibition curve) at hERG potassium channel was above 40000 nM. In addition, in data set [1], the half-life (as a rule, the time needed for the level to fall by half in the phase considered) at 1 μM is 93.1 h and the microsomal CLint at 1 μM worked out at 0.252 µL/min/mg.

With `N#Cc1ccc(COc2cccc(-c3cnn(Cc4nc5sc(C(=O)O)cc5n4C[C@@H]4CCO4)c(=O)c3)n2)c(F)c1` [Compound 9, (S)-2-((4-(6-((4-cyano-2-fluorobenzyl)oxy)pyridin-2-yl)-6-oxopyridazin-1(6H)-yl)methyl)-1-(oxetan-2-ylmethyl)-1H-thieno[2,3-d]imidazole-5-carboxylic acid], the EC50 at GLP-1 receptor (setting [3]) and on GLP-1 receptor (setting [4]) was below 10 nM each time.

For `CC1(c2ccc(Cl)cc2F)Oc2cccc(C3CCN(Cc4nc5sc(C(=O)O)cc5n4C[C@@H]4CCO4)CC3)c2O1` (stereo partly drawn) [Compound 4, 2-((4-(2-(4-chloro-2-fluorophenyl)-2-methylbenzo[d][1,3]dioxol-4-yl)piperidin-1-yl)methyl)-1-(((S)-oxetan-2-yl)methyl)-1H-thieno[2,3-d]imidazole-5-carboxylic acid], the EC50 at GLP-1 receptor (setting [3]) and on GLP-1 receptor (setting [4]) was below 10 nM in each case.

For `CC1(c2ccc(Cl)cc2F)Oc2cccc(-c3ccc(Cc4nc5sc(C(=O)O)cc5n4C[C@@H]4CCO4)c(F)c3)c2O1` (stereo partly drawn) [Compound 10, 2-(4-(2-(4-chloro-2-fluorophenyl)-2-methylbenzo[d][1,3]dioxol-4-yl)-2-fluorobenzyl)-1-(((S)-oxetan-2-yl)methyl)-1H-thieno[2,3-d]imidazole-5-carboxylic acid], the EC50 at GLP-1 receptor (setting [3]) and on GLP-1 receptor (setting [4]) was below 10 nM in each case.

Take `N#Cc1ccc(COc2nc(-c3cc(F)c(Cc4nc5sc(C(=O)O)cc5n4C[C@@H]4CCO4)cc3F)ccc2F)c(F)c1` [Compound 22, (S)-2-(4-(6-((4-cyano-2-fluorobenzyl)oxy)-5-fluoropyridin-2-yl)-2,5-difluorobenzyl)-1-(oxetan-2-ylmethyl)-1H-thieno[2,3-d]imidazole-5-carboxylic acid]: the EC50 at GLP-1 receptor (setting [3]) and at GLP-1 receptor (setting [4]) was below 10 nM in each case.

As to `N#Cc1ccc(COc2cccc(N3CCN(Cc4nc5sc(C(=O)O)cc5n4C[C@@H]4CCO4)CC3)n2)c(F)c1` [Compound 13, (S)-2-((4-(6-((4-cyano-2-fluorobenzyl)oxy)pyridin-2-yl)piperazin-1-yl)methyl)-1-(oxetan-2-ylmethyl)-1H-thieno[2,3-d]imidazole-5-carboxylic acid], the EC50 on GLP-1 receptor (setting [3]) and on GLP-1 receptor (setting [4]) was below 10 nM in each case.

As to `N#Cc1ccc(COc2cccc(C3CCN(Cc4nc5sc(C(=O)O)cc5n4C[C@@H]4CCO4)CC3)n2)c(F)c1` [Trifluoroacetate salt of compound 1, (S)-2-((4-(6-((4-cyano-2-fluorobenzyl)oxy)pyridin-2-yl)piperidin-1-yl)methyl)-1-(oxetan-2-ylmethyl)-1H-thieno[2,3-d]imidazole-5-carboxylic acid], the EC50 at GLP-1 receptor (setting [3]) and at GLP-1 receptor (setting [4]) was below 10 nM throughout.

For `N#Cc1ccc(COc2cccc(-c3cc(F)c(Cc4nc5sc(C(=O)O)cc5n4C[C@@H]4CCO4)cc3F)n2)cc1` [Compound 23, (S)-2-(4-(6-((4-cyanobenzyl)oxy)pyridin-2-yl)-2,5-difluorobenzyl)-1-(oxetan-2-ylmethyl)-1H-thieno[2,3-d]imidazole-5-carboxylic acid], the EC50 at GLP-1 receptor (setting [3]) and on GLP-1 receptor (setting [4]) was below 10 nM in each case.

As for `CC1(c2ccc(C#N)cc2F)Oc2cccc(C3CCN(Cc4nc5sc(C(=O)O)cc5n4C[C@@H]4CCO4)CC3)c2O1` (stereo partly drawn) [Compound 5, 2-((4-(2-(4-cyano-2-fluorophenyl)-2-methylbenzo[d][1,3]dioxol-4-yl)piperidin-1-yl)methyl)-1-(((S)-oxetan-2-yl)methyl)-1H-thieno[2,3-d]imidazole-5-carboxylic acid], the EC50 on GLP-1 receptor (setting [3]) and at GLP-1 receptor (setting [4]) was below 10 nM throughout.

In the case of `N#Cc1ccc(COc2cccc(-c3cc(F)c(Cc4nc5sc(C(=O)O)cc5n4C[C@@H]4CCO4)cc3F)n2)c(F)c1` [Compound 21, (S)-2-(4-(6-((4-cyano-2-fluorobenzyl)oxy)pyridin-2-yl)-2,5-difluorobenzyl)-1-(oxetan-2-ylmethyl)-1H-thieno[2,3-d]imidazole-5-carboxylic acid], the concentration giving a half-maximal response (EC50) on GLP-1 receptor (setting [3]) and at GLP-1 receptor (setting [4]) was below 10 nM in each case.

Consider `N#Cc1ccc(COc2cccc(-c3ccc(Cc4nc5ccc(C(=O)O)cc5n4C[C@@H]4CCO4)c(F)c3)n2)c(F)c1` [Compound DZ-6, reference compound], for which the half-life at 1 μM in data set [1] amounted to 2.17 h; in data set [2], 2.88 h. The microsomal CLint at 1 μM was found to be 10.6 µL/min/mg in data set [1] and 8.01 µL/min/mg in data set [2] (read-out: CLint(mic)).

Regarding `N#Cc1ccc(COc2nc(-c3ccc(Cc4nc5sc(C(=O)O)cc5n4C[C@@H]4CCO4)c(F)c3)ccc2F)c(F)c1` [Compound 18, (S)-2-(4-(6-((4-cyano-2-fluorobenzyl)oxy)-5-fluoropyridin-2-yl)-2-fluorobenzyl)-1-(oxetan-2-ylmethyl)-1H-thieno[2,3-d]imidazole-5-carboxylic acid], the EC50 at GLP-1 receptor (setting [3]) and at GLP-1 receptor (setting [4]) was below 10 nM in each case.

Consider `N#Cc1ccc(COc2cccc(C3CCN(Cc4nc5sc(C(=O)O)cc5n4C[C@@H]4CCCO4)CC3)n2)c(F)c1` [Compound 12, (S)-2-((4-(6-((4-cyano-2-fluorobenzyl)oxy)pyridin-2-yl)piperidin-1-yl)methyl)-1-((tetrahydrofuran-2-yl)methyl)-1H-thieno[2,3-d]imidazole-5-carboxylic acid], for which the EC50 at GLP-1 receptor (setting [3]) and on GLP-1 receptor (setting [4]) was below 10 nM throughout.

In the case of `N#Cc1ccc(COc2cccc(C3CCN(Cc4nc5cc(C(=O)O)sc5n4C[C@@H]4CCO4)CC3)n2)c(F)c1` [Compound 16, (S)-2-((4-(6-((4-cyano-2-fluorobenzyl)oxy)pyridin-2-yl)piperidin-1-yl)methyl)-3-(oxetan-2-ylmethyl)-3H-thieno[2,3-d]imidazole-5-carboxylic acid], the EC50 on GLP-1 receptor (setting [3]) and on GLP-1 receptor (setting [4]) was below 10 nM in each case.
